Holding throughout (assay type): in vivo
For assay [1], the system named is Tobacco Cutworm (Spodoptera litura). The assay can be described thus: Tobacco cutworm control test (leaf piece dipping treatment). The settings on record: 120 h, cabbage leaf piece dipped, second instar larvae, five days after the treatment, 25° C., read-out: insect mortality rate. The protocol:
(§1) The insect mortality rate and the feeding damage prevention effect shown in the Biological Test Examples were calculated based on the following expression.
Biological Test Example 5: Tobacco Cutworm (Spodoptera litura) Control Test (Leaf Piece Dipping Treatment)
A cabbage leaf was cut into a piece having a diameter of 5.0 cm, and this cabbage leaf piece was immersed in 20 mL of a diluted solution of the test compound diluted to 200 ppm, and air-dried. After air-drying, the cabbage leaf piece was placed in a plastic cup, 5 second instar tobacco cutworm larvae were released thereinto, the cup was covered with a lid, and the larvae were reared in a constant temperature chamber at 25° C.

The subject of assay [2] is Diamondback Moth (Plutella xylostella). In words: Diamondback moth control test (leaf piece dipping treatment). The settings on record: 120 h, cabbage leaf piece dipped, third instar, five days after the treatment, 25° C., read-out: insect mortality rate. The protocol:
as §1
Biological Test Example 3: Diamondback Moth (Plutella xylostella) Control Test (Leaf Piece Dipping Treatment)
A cabbage leaf was cut into a piece having a diameter of 5.0 cm, and this cabbage leaf piece was immersed in 20 mL of a diluted solution of the test compound diluted to 200 ppm, and air-dried. After air-drying, the cabbage leaf piece was placed in a plastic cup, 10 third instar diamondback moth nymphs were released thereinto, the cup was covered with a lid, and the nymphs were reared in a constant temperature chamber at 25° C.

Assay [3] relates to Cotton Aphid (Aphis gossypii). In words: Cotton aphid control test (leaf piece application treatment). The settings on record: 120 h, sprayed on cucumber leaf piece, nymphs, five days after the treatment, 25° C., read-out: insect mortality rate. The protocol: as §1
Biological Test Example 1: Cotton Aphid (Aphis gossypii) Control Test (Leaf Piece Application Treatment)
A cucumber leaf was cut into a piece having a diameter of 3.5 cm and placed on absorbent cotton moistened with water. Two adult cotton aphids were released thereon, and allowed to lay nymphs for 24 hours, and then the adults were removed. 2 mL of a diluted solution of the test compound diluted to 200 ppm was applied onto the resulting cucumber leaf by using an spray tower. The cucumber leaf was air-dried and then placed in a plastic cup together with the absorbent cotton, the cup was covered with a lid, and the nymphs were reared in a constant temperature chamber at 25° C.

Bounds are passed on as bounds.

What is called mortality is the percentage killed. As to `CCS(=O)(=O)c1cc(-c2ccc(F)cc2)cnc1C1=NOCN1c1ccc(C(F)(F)F)cn1` [Compound 27, 3-(3-(ethylsulfonyl)-5-(4-fluorophenyl)pyridin-2-yl)-4-(5-(trifluoromethyl)pyridin-2-yl)-4,5-dihydro-1,2,4-oxadiazole], the mortality at 200 ppm in assay [1] and in assay [2] was at least 80% each time.
In the case of `CCS(=O)(=O)c1cc(-c2ccc(F)cc2)cnc1C1=NOCCN1c1ccc(C(F)(F)F)cn1` [Compound 29, 3-(3-(ethylsulfonyl)-5-(4-fluorophenyl)pyridin-2-yl)-4-(5-(trifluoromethyl)pyridin-2-yl)-5,6-dihydro-4H-1,2,4-oxadiazine], the mortality at 200 ppm in assay [1], in assay [2] and in assay [3] was at least 80% in each case.
Take `CN(C)S(=O)(=O)c1cc(-c2ccc(OC(F)(F)F)cc2)cnc1-c1noc(=O)n1-c1ccc(C(F)(F)F)cn1` [Compound 195, N,N-dimethyl-2-(5-oxo-4-(5-(trifluoromethyl)pyridin-2-yl)-4,5-dihydro-1,2,4-oxadiazol-3-yl)-5-(4-(trifluoromethoxy)phenyl)pyridine-3-sulfonamide]: the mortality at 200 ppm in assay [1] and in assay [2] was at least 80% each time.
Consider `CCS(=O)(=O)c1cc(-c2ccc(F)cc2)cnc1-c1noc(=S)n1-c1ccc(C(F)(F)F)cn1` [Compound 18, 3-(3-(ethylsulfonyl)-5-(4-fluorophenyl)pyridin-2-yl)-4-(5-(trifluoromethyl)pyridin-2-yl)-1,2,4-oxadiazol-5(4H)-thione], for which the mortality at 200 ppm in assay [1], in assay [2] and in assay [3] was at least 80% each time.
As to `CCS(=O)(=O)c1cc(-c2ccc(F)cc2)cnc1-c1noc(=O)n1-c1ccc(C(F)(F)F)cn1` [Compound 2, 3-(3-(ethylsulfonyl)-5-(4-fluorophenyl)pyridin-2-yl)-4-(5-(trifluoromethyl)pyridin-2-yl)-1,2,4-oxadiazol-5(4H)-one], the mortality at 200 ppm in assay [1], in assay [2] and in assay [3] was at least 80% throughout.
Consider `CCS(=O)(=O)c1cc(-c2ccc(OC(F)(F)F)cc2)cnc1-c1noc(=O)n1-c1ccc(C(F)(F)F)cn1` [Compound 4, 3-(3-(ethylsulfonyl)-5-(4-(trifluoromethoxy)phenyl)pyridin-2-yl)-4-(5-(trifluoromethyl)pyridin-2-yl)-1,2,4-oxadiazol-5(4H)-one], for which the mortality at 200 ppm in assay [1], in assay [2] and in assay [3] was at least 80% throughout.
`CCS(=O)(=O)c1cc(-c2ccc(F)cc2)cnc1C1=NC(=COC)C(=O)N1c1ccc(C(F)(F)F)cn1` [Compound 34]: the mortality at 200 ppm in assay [2] is at least 80%.
